Assays:
[1] = tested on: conscious Sprague-Dawley rats; test: Mavacamten-induced cardio-depression with positive inotropic challenges, echocardiography; format: in vivo, rat; conditions: inotropic challenge 3 hrs after MAVA 4 mg/kg PO
Protocol: Methods: The responsiveness of mavacamten-induced cardio-depression to positive inotropic challenges was assessed in a set of conscious Sprague-Dawley rats. In these animals, functional reserve was assessed via either dobutamine (+DOB, 10 ug/kg/min IV for 10 min, n=7) or levosimendan (+LEVO, 0.3 μmol/kg IV over […]; n=6) challenges given 3 hrs following a single-dose administration of MAVA (at 4 mg/kg, PO). Cardiac function/geometry were recorded and compared at three separate time-points/days: prior to dosing (i.e., at baseline) and at 3 hrs post-dosing both before as well as during the inotropic challenge; in order to account for the levosimendan-induced changes in loading conditions, an additional echocardiographic examination was performed following acute preload-restoration in LEVO-treated rats (+LEVO/F, 0.9% NaCl at 30 mL/kg/hr IV).
In these experiments, left-ventricular fractional shortening (FS), an index of systolic performance, as well as LV dimensions/volumes and heart rates were measured using a high-frequency transducer and parasternal long-axis transthoracic views (Vevo2100, VisualSonic). FS was defined as the end-diastole normalized change in internal dimensions/diameter of the left ventricle between end-systole (LVESd) and end-diastole (LVEDd) (i.e., FS=100·[LVEDd−LVESd]/LVEDd). LV volumes were derived assuming a Teichholz model (LVV=7·[2.4+LVid]−1·LVid3).

[2] = tested on: isolated adult rat ventricular myocytes; test: Counteraction of mavacamten effects in isolated myocytes in vitro; format: cell-based
Description: (§1) Additional supportive measures, e.g., intravenous volume supplementation and/or the use of arterial vasoconstrictor agents (a adrenergic agonists) may complement the use of a β adrenergic agonist.

[3] = target: T1, bovine cardiac synthetic myosin filaments (Bos taurus, UniProt Q9BE39); test: DRX/SRX ATPase rate and SRX population in cardiac synthetic myosin filaments; format: biochemical; conditions: over a range of concentrations; the two compounds compared
T1 construct: bovine cardiac synthetic myosin filaments; from tissue; host or cells: bovine heart (inferred from 'bovine cardiac'; the preparation is not described)
T1 sequence (Q9BE39 whole entry): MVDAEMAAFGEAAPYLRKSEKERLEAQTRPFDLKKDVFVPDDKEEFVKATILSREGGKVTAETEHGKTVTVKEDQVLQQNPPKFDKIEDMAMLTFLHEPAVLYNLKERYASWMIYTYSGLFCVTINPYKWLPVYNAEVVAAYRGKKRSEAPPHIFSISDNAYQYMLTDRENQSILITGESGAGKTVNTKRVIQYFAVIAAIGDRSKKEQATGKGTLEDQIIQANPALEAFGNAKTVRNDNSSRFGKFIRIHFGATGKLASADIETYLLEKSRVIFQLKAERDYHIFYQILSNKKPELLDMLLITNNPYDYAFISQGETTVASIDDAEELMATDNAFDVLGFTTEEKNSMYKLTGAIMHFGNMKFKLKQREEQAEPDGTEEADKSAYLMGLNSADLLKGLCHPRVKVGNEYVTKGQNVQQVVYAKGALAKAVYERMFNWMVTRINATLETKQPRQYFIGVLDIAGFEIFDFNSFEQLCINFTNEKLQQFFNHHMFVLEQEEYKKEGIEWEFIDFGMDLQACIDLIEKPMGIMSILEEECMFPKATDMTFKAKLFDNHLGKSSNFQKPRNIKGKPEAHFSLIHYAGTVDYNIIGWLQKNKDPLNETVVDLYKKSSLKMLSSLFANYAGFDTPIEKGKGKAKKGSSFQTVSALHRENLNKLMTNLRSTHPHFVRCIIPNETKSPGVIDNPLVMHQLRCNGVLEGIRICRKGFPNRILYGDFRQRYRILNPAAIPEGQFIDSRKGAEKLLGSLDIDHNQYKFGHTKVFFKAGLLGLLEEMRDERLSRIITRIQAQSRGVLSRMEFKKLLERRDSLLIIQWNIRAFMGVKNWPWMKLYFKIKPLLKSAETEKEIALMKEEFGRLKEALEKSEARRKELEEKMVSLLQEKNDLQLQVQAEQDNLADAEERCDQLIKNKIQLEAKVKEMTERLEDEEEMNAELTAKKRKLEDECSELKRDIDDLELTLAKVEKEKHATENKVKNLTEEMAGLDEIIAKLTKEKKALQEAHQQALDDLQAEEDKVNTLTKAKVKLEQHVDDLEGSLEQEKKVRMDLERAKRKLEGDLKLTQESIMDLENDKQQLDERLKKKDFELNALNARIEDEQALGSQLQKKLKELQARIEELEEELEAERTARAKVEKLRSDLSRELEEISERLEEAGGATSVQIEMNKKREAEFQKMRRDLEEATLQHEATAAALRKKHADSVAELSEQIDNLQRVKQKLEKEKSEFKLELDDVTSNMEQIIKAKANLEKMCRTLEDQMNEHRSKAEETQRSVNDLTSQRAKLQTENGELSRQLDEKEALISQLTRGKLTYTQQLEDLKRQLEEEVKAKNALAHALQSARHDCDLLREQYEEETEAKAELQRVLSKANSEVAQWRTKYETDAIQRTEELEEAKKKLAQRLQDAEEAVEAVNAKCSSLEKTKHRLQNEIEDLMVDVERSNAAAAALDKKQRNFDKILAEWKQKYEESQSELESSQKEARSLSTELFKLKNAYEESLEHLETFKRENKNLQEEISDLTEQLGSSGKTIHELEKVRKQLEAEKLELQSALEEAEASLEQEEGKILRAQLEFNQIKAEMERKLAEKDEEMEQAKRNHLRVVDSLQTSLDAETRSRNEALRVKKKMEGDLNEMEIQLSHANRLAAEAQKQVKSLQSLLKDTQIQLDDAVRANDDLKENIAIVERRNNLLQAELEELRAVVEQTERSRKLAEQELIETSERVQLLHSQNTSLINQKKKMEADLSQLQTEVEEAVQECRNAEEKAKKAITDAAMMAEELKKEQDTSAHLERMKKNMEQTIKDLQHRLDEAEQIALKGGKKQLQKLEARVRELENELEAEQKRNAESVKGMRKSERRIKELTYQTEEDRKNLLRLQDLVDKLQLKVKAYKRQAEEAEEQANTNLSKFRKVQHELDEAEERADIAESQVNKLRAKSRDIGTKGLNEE
T1 sequence (P85100 whole entry partner): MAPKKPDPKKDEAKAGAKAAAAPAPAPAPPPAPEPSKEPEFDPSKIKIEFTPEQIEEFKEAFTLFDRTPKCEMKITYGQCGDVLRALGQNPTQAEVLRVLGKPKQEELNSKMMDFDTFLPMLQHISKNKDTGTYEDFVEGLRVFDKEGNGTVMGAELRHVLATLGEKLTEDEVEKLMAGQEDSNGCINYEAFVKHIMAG
T1 sequence (Q3SZE5 whole entry partner): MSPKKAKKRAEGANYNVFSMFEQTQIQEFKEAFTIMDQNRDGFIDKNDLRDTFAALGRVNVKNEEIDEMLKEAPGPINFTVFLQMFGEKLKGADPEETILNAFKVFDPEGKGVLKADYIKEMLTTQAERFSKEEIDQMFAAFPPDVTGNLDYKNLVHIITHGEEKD

[4] = tested on: Yucatan mini-pigs with a heterozygous MYH7 R403Q mutation; test: Chronic MYK-581 in mini-pig genetic model of non-obstructed HCM (cMR imaging, invasive hemodynamics, dobutamine challenge); format: in vivo
Protocol: The mini-pigs were treated for at least 12 weeks and were evaluated as shown in Schematic 1 below. […] After ˜14 weeks of treatment, all pigs underwent in vivo cMR imaging for the assessment of LV function and geometry, as well as of myocardial composition via of Late Gadolinium Enhancement (LGE) and T1 mapping techniques including extracellular volume (ECV) assessments. In addition, a subset of animals (MYK: n=6, CTRL: n=5) also underwent terminal invasive hemodynamics assessments, including cardiac output (CO, via thermodilution), load-independent systolic/diastolic function (via LV pressure-volume relationships), and β-adrenergic (β-AR) cardiac reserve (via dobutamine at 5 ug/kg/min IV).
The mini-pig model can be obtained following the method disclosed in a presentation entitled “A Minipig Genetic Model of Hypertrophic Cardiomyopathy Uncovers the Pathophysiological Mechanisms of Disease Evolution”, by E. Green et al., at University of Iowa, Carver College of Medicine.

[5] = tested on: anaesthetized rats; test: Counteraction of mavacamten effects in anaesthetized rats in vivo; set-up: species or system rat
Description: as §1

[6] = tested on: conscious fully-instrumented dogs with normal cardiac function; test: Cardiac reserve under acute β-AR (dobutamine) challenges in conscious instrumented dogs; format: in vivo, dog; conditions: before and under acute mavacamten treatment
Protocol: In addition, the effects of MAVA (at 1.5 mg/kg PO, via gavage) on cardiac reserve were evaluated via acute β-AR challenges (dobutamime: 2, 5, and 10 ug/kg/min IV) in conscious fully-instrumented (LVPV group) dogs with normal cardiac function (n=8). These challenges were performed before/after dosing (+3-hour) in control- and MAVA-treated animals both under normal cardiac physiological conditions (n=4) and under (mild) concomitant cardio-depression induced via either selective β-AR blockade (+BB, metoprolol 0.5±0.1 mg/kg PO tid; n=4) or L-type Ca2+-channel blockade (+CCB, verapamil at 5±1 mg/kg PO tid; n=4); pharmacological blockades were established for 7 days prior to the MAVA treatment. Both peak and dose-responses were evaluated at steady state.
Throughout these experiments, analog signals were digitally acquired (1000 Hz) and recorded continuously with a data acquisition/analysis system (IOX; EMKA Technologies). Heart rate (HR), end-systolic (ESP) and end-diastolic pressures (EDP), as well as the peak rates of pressure rise/decline (dP/dtmax and dP/dtmin), the contractility index (CI: dP/dt/P at dP/dtmax), and the time-constant of myocardial relaxation (tau1/2, time for 50% decay from dP/dtmin) were derived from the LV pressure signal. Meanwhile, the end-systolic (ESV) and end-diastolic volumes (EDV) were measured from the LV volume signal derived from the implanted myocardial crystals. LV volumes were derived assuming a Teichholz model, and stroke volume (SV=EDV−ESV), ejection fraction (EF=SV/EDV), as well as cardiac output (CO=SV·HR) were calculated; in a subset of animals, SV and CO values were verified from data derived from the implanted aortic flow […]. […] The slopes of the preload-recruitable stroke work (PRSW; stroke work vs. EDV) and the end-systolic pressure-volume relationships (ESPVR; end-systolic elastance, Ees) were derived by software using linear models (IOX; EMKA Technologies), and were used as load-independent inotropic indices. Ventricular load was estimated by the effective arterial elastance (Ea=ESP/SV). […]

C[C@@H]1CC(=O)NN=C1c1ccc(NN=C(C#N)C#N)cc1 [levosimendan]
echocardiography-derived indices of systolic function after mavacamten [1]: successfully rescued/restored

CC(C)NCC(O)c1ccc(O)c(O)c1 (stereo not drawn) [isoproterenol]
pharmacologic effects of mavacamten counteracted [2]: can be counteracted

CC(C)n1c(=O)cc(N[C@@H](C)c2cccc(F)c2)[nH]c1=O [MYK-581, (S)-6-((1-(3-fluorophenyl)ethyl)amino)-3-isopropylpyrimidine-2,4(1H,3H)-dione]
DRX ATPase rate and SRX ATPase Rate (as a fraction of control) [3]: similar
CO (cardiac output) ([4]; chronic treatment): preserving CO
CO change, β-AR cardiac reserve ([4]; dobutamine challenge, control +26±2): +60±8%
T1-times ([4]; vs control): lower T1-times

CC(CCc1ccc(O)cc1)NCCc1ccc(O)c(O)c1 (stereo not drawn) [dobutamine]
pharmacologic effects of mavacamten counteracted [5]: can be counteracted
echocardiography-derived indices of systolic function after mavacamten [1]: successfully rescued/restored
stroke-volume/cardiac output recruitments [6]: comparable stroke-volume/cardiac output recruitments
